Tests used:
Assay type in all cases: physicochemical
[1] = Solubility of compound II in solvents
Procedure: Compound II (2 g) was slowly dispersed in 70% IPA (20 mL) and water (14 mL) was added. […] The IPA was distilled using rotary evaporator to achieve an aqueous solution containing ca. […] of II. The concentrated aqueous solution was spray dried using a Buchi B-290 spray drier and the operating parameters were adjusted as follows: […]

[2] = Stability study of micellar solid from spray drying of I (HPLC area %)
Procedure: (§1) A small amount of the solid (about 10 mg from example 1) was weighed into a weighing bottle and placed in a chamber with controlled relative humidity for 4 weeks and the percentage of water absorbed was calculated form the weight gain. The sample was also assayed by HPLC against an external standard on a Waters 2690 HPLC at 276 nm. The data was processed using Waters Millennium software version 3.2. The thermal stability also was determined at 60° C. and at 40° C./75% relative humidity. The purity of the sample was determined by assaying weighed aliquots by HPLC against an external standard.

[3] = Hygroscopicity: water absorbed in controlled relative humidity chamber (weight gain); settings: 4 weeks
Procedure: as §1

Area % ([2]; 25° C./60% RH (closed), 4 weeks) [%] | Area % ([2]; 25° C./60% RH (closed), To) [%] | Area % ([2]; 40° C./75% RH (closed), 4 weeks) [%] | Area % ([2]; 40° C./75% RH (closed), To) [%] | Area % ([2]; 40° C./75% RH (open), 5 weeks) [%] | Area % ([2]; 40° C./75% RH (open), To) [%] | Area % ([2]; 60° C. (closed), 5 weeks) [%] | Area % ([2]; 60° C. (closed), To) [%] | thermal stability ([2]; at 40 and 60° C. over the duration of the assay) | hygroscopicity [3] | Compound | solubility ([1]; aqueous with cosolvent or surfactant or cyclodextrin, in 70% IPA/H2O) [µg/mL] | solubility ([1]; in water) [µg/mL] | solubility ([1]; organic solvent or mixture, in IPA) [µg/mL]
 |  |  |  |  |  |  |  |  |  | CCC(=O)[N-]S(=O)(=O)c1ccc(NC(=O)Cc2ccc(Br)c(Oc3cc(Cl)cc(C#N)c3)c2F)c(Cl)c1.[Na+] [II] | ~47000 | ~4000 | ~80
99.88 | 99.88 | 99.91 | 99.88 | 99.26 | 99.81 | 99.72 | 99.81 | thermally stable | not hygroscopic | O=C(O)CCc1cc(C(=O)c2ccc(OC3CCCC3)cc2O)ccc1OCc1ccc2c(O)noc2c1 [I] |  |  | 
